Laboratory results reported in patent publication US20250163077A1, “MEMBRANE-ASSOCIATED TYROSINE- AND THREONINE-SPECIFIC CDC2-INHIBITORY KINASE (PKMYT1) INHIBITORS AND USES THEREOF” (Insilico Medicine IP Limited, priority 2022, published 2025).

Columns and labels:
PKMYT1 = PKMYT1 (Homo sapiens (Human), UniProt Q99640); test: PKMYT1 HTRF Assay; type: binding; settings: Tracer 178, compound 10 μM to 0.5 nM, read-out: MYT1 HTRF IC50
Method: Compound serial dilution is performed by Echo, and the final concentrations vary from 10 μM to 0.5 nM. This was filled by the addition of 5 μL/well of Enzyme solution to the assay plate containing the compound. The plate was centrifuged at 1000 rpm for 1 minute, and incubate 15 minutes at 25° C. […] Next 5 μL GST-Tb was added into the assay plate, the plate was centrifuged at 1000 rpm for 1 minute, and incubate for 15 minutes at 25° C. The assay plate was read on Envision.

WEE1 = WEE1 (Homo sapiens (Human), UniProt P30291); test: WEE1 ADP-Glo Assay; type: biochemical; settings: compound 10 μM to 0.5 nM
Method: Compound serial dilution is performed by Echo, and the final concentrations vary from 10 μM to 0.5 nM. This was filled by the addition of 5 μL/well of Enzyme solution to the assay plate containing the compound. The plate was centrifuged at 1000 rpm for 1 minute, and incubate 15 minutes at 25° C. Then 5 μL/well of substrate solution was added to initiate the reaction, and incubate for 60 minutes at 25° C. Next 10 μL kinase detection reagent was added into the assay plate, the plate was centrifuged at 1000 rpm for 1 minute, and incubate for 60 minutes at […]. The assay plate was read on Envision for US LUM as RLU.

Sequence of WEE1 (P30291 whole entry): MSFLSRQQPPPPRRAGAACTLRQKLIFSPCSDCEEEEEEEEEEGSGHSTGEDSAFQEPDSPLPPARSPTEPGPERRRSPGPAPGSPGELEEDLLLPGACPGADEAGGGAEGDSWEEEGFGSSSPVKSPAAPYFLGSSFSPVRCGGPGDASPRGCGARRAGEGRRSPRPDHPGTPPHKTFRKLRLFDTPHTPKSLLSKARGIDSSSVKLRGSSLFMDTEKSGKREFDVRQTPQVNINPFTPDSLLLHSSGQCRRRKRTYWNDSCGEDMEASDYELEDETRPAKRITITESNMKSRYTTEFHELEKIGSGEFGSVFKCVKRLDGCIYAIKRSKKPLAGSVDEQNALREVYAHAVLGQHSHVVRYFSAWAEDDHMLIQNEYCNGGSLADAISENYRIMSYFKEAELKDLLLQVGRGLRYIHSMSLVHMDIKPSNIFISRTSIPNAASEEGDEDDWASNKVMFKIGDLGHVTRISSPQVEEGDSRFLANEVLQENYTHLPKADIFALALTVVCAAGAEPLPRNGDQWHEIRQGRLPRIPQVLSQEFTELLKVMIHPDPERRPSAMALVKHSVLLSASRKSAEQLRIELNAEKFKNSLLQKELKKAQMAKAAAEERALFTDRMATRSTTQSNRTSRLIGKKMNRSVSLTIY
Sequence of PKMYT1 (Q99640 whole entry): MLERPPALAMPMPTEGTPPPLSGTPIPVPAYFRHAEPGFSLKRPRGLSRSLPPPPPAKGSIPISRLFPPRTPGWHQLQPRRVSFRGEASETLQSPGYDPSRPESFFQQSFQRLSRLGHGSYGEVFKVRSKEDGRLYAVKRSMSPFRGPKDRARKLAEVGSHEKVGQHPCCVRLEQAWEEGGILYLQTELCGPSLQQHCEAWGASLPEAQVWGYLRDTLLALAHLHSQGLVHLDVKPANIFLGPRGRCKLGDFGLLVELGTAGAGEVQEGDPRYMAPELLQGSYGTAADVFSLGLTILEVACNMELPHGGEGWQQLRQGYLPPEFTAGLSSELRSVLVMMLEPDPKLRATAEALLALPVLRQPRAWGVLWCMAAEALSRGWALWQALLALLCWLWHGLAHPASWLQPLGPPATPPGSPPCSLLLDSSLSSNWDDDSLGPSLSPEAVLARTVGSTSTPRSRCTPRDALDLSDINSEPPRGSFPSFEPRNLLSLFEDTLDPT

| SMILES | IC50 (PKMYT1) [nM] | IC50 (WEE1) [nM] |
| --- | --- | --- |
| Cc1ccc(O)c(C)c1-n1c(N)c(C(=O)N2CCc3ncsc3C2)c2nc(C)c(C)nc21 [Example 5, (6-amino-5-(3-hydroxy-2,6-dimethylphenyl)-2,3-dimethyl-5H-pyrrolo[2,3-b]pyrazin-7-yl)(6,7-dihydrothiazolo[5,4-c]pyridin-5(4H)-yl)methanone] | 10 to 50 | > 10000 |
| Cc1ccc(O)c(C)c1-n1c(N)c(C(=O)N2CCc3nn(C)cc3C2)c2nc(C)c(C)nc21 [Example 6, (6-amino-5-(3-hydroxy-2,6-dimethylphenyl)-2,3-dimethyl-5H-pyrrolo[2,3-b]pyrazin-7-yl)(2-methyl-2,4,6,7-tetrahydro-5H-pyrazolo[4,3-c]pyridin-5-yl)methanone] | 10 to 50 | > 10000 |
| Cc1ccc(O)c(C)c1-n1c(N)c(C(=O)N2CCc3ncccc3C2)c2nc(C)c(C)nc21 [Example 7, (6-amino-5-(3-hydroxy-2,6-dimethylphenyl)-2,3-dimethyl-5H-pyrrolo[2,3-b]pyrazin-7-yl)(7,8-dihydro-1,6-naphthyridin-6(5H)-yl)methanone] | < 10 | > 10000 |
| Cc1ccc(O)c(C)c1-n1c(N)c(C(=O)N2CCc3ncsc3C2)c2cc(Cl)cnc21 [Example 9, (2-amino-5-chloro-1-(3-hydroxy-2,6-dimethylphenyl)-1H-pyrrolo[2,3-b]pyridin-3-yl)(6,7-dihydrothiazolo[5,4-c]pyridin-5(4H)-yl)methanone] | 10 to 50 | > 10000 |
| Cc1nc2n(n1)CCN(C(=O)c1c(N)n(-c3c(C)ccc(O)c3C)c3ncc(Cl)cc13)C2 [Example 10, (2-amino-5-chloro-1-(3-hydroxy-2,6-dimethylphenyl)-1H-pyrrolo[2,3-b]pyridin-3-yl)(2-methyl-5,6-dihydro-[1,2,4]triazolo[1,5-a]pyrazin-7(8H)-yl)methanone] | 10 to 50 | > 10000 |
| Cc1cc2n(n1)CCN(C(=O)c1c(N)n(-c3c(C)ccc(O)c3C)c3ncc(Cl)cc13)C2 [Example 11, (2-amino-5-chloro-1-(3-hydroxy-2,6-dimethylphenyl)-1H-pyrrolo[2,3-b]pyridin-3-yl)(2-methyl-6,7-dihydropyrazolo[1,5-a]pyrazin-5(4H)-yl)methanone] | 10 to 50 | > 10000 |
| Cc1ccc(O)c(C)c1-n1c(N)c(C(=O)N2CCn3nc(C(F)(F)F)nc3C2)c2cc(Cl)cnc21 [Example 12, (2-amino-5-chloro-1-(3-hydroxy-2,6-dimethylphenyl)-1H-pyrrolo[2,3-b]pyridin-3-yl)(2-(trifluoromethyl)-5,6-dihydro-[1,2,4]triazolo[1,5-a]pyrazin-7(8H)-yl)methanone] | 10 to 50 | > 10000 |
| Cc1ccc(O)c(C)c1-n1c(N)c(C(=O)N2CCn3ncc(CO)c3C2)c2nc(C)c(C)nc21 [Example 16, (6-amino-5-(3-hydroxy-2,6-dimethylphenyl)-2,3-dimethyl-5H-pyrrolo[2,3-b]pyrazin-7-yl)(3-(hydroxymethyl)-6,7-dihydropyrazolo[1,5-a]pyrazin-5(4H)-yl)methanone] | < 10 | > 10000 |
| Cc1ccc(O)c(C)c1-n1c(N)c(C(=O)N2CCn3nc(C(C)(C)O)cc3C2)c2nc(C)c(C)nc21 [Example 19] | 500 to 5000 |  |
| Cc1ccc(O)c(C)c1-n1c(N)c(C(=O)N2CCn3nccc3C2C)c2nc(C)c(C)nc21 (stereo not drawn) [Example 26, (6-amino-5-(3-hydroxy-2,6-dimethylphenyl)-2,3-dimethyl-5H-pyrrolo[2,3-b]pyrazin-7-yl)(4-methyl-6,7-dihydropyrazolo[1,5-a]pyrazin-5(4H)-yl)methanone] | 500 to 5000 | > 10000 |
| Cc1ccc(O)c(C)c1-n1c(N)c(C(=O)N2CCn3c(nnc3C(F)(F)F)C2)c2cc(Cl)cnc21 [Example 27, (2-amino-5-chloro-1-(3-hydroxy-2,6-dimethylphenyl)-1H-pyrrolo[2,3-b]pyridin-3-yl)(3-(trifluoromethyl)-5,6-dihydro-[1,2,4]triazolo[4,3-a]pyrazin-7(8H)-yl)methanone] | 50 to 500 | > 10000 |
| Cc1ccc(O)c(Cl)c1-n1c(N)c(C(=O)N2CCn3nccc3C2)c2nc(C)c(C)nc21 [Example 28, (6-amino-5-(2-chloro-3-hydroxy-6-methylphenyl)-2,3-dimethyl-5H-pyrrolo[2,3-b]pyrazin-7-yl)(6,7-dihydropyrazolo[1,5-a]pyrazin-5(4H)-yl)methanone] | < 10 | 5430 |
| Cc1cc(F)c(O)c(C)c1-n1c(N)c(C(=O)N2CCn3nccc3C2)c2nc(C)c(C)nc21 [Example 29, (6-amino-5-(4-fluoro-3-hydroxy-2,6-dimethylphenyl)-2,3-dimethyl-5H-pyrrolo[2,3-b]pyrazin-7-yl)(6,7-dihydropyrazolo[1,5-a]pyrazin-5(4H)-yl)methanone] | 10 to 50 | > 10000 |
| C=Cc1cnc2c(n1)c(C(=O)N1CCn3nccc3C1)c(N)n2-c1c(C)ccc(O)c1C [Example 33, (6-amino-5-(3-hydroxy-2,6-dimethylphenyl)-2-vinyl-5H-pyrrolo[2,3-b]pyrazin-7-yl)(6,7-dihydropyrazolo[1,5-a]pyrazin-5(4H)-yl)methanone] | 10 to 50 | > 10000 |
| Cc1ccc(O)c(C)c1-n1c(N)c(C(=O)N2CCn3nccc3C2)c2nc(C(F)(F)F)ncc21 [Example 38, (6-amino-5-(3-hydroxy-2,6-dimethylphenyl)-2-(trifluoromethyl)-5H-pyrrolo[3,2-d]pyrimidin-7-yl)(6,7-dihydropyrazolo[1,5-a]pyrazin-5(4H)-yl)methanone] | 50 to 500 | > 10000 |
| CC#Cc1nc2c(C(=O)N3CCn4nccc4C3)c(N)n(-c3c(C)ccc(O)c3C)c2nc1C [Example 40, (6-amino-5-(3-hydroxy-2,6-dimethylphenyl)-3-methyl-2-(prop-1-yn-1-yl)-5H-pyrrolo[2,3-b]pyrazin-7-yl)(6,7-dihydropyrazolo[1,5-a]pyrazin-5(4H)-yl)methanone] | 10 to 50 |  |
